The IC50 is the midpoint of a concentration-inhibition curve.

The values below come from patent US11608335B2, “Somatostatin modulators and uses thereof” (CRINETICS PHARMACEUTICALS, INC., priority 2018, dated 2023).

Each structure is given as a SMILES string. Read-outs that look alike come from different tables or passages of the source. Some results are limits rather than exact numbers.

In data set [1] the target is T1, human somatostatin receptor subtype 3 (Homo sapiens, UniProt P32745).
T1 construct: expressed in transfected cells
T1 sequence (P32745 whole entry): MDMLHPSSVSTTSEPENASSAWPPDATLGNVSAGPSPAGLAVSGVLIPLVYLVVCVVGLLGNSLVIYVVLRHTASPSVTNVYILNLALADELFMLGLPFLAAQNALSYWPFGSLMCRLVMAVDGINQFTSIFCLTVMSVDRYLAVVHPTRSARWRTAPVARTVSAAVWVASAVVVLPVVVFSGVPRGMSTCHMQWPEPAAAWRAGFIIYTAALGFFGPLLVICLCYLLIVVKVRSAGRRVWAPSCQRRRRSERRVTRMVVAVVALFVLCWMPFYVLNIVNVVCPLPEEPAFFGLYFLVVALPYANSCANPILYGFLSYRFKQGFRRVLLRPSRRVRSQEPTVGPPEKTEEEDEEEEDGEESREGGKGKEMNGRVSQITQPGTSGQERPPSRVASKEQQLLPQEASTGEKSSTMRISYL
The data set is described as follows: cAMP assay for SST3R (inhibition of cAMP via human SST3 receptor). In kind it is cell-based. The conditions noted are these: from inhibition of cAMP via human SST5 receptor and human SST3 receptor. From the text:
cAMP Assay Protocol for SST3R:
Background: Cyclic AMP is a second messenger, typically raised through Gs and lowered through Gi signalling.

In data set [2] the target is T2, Cytochrome P450 (CYP) 2D6 enzyme (Homo sapiens, UniProt P10635).
T2 construct: using pooled male and female human liver microsomes; from tissue; host or cells: pooled male and female human liver microsomes
T2 sequence (P10635 whole entry): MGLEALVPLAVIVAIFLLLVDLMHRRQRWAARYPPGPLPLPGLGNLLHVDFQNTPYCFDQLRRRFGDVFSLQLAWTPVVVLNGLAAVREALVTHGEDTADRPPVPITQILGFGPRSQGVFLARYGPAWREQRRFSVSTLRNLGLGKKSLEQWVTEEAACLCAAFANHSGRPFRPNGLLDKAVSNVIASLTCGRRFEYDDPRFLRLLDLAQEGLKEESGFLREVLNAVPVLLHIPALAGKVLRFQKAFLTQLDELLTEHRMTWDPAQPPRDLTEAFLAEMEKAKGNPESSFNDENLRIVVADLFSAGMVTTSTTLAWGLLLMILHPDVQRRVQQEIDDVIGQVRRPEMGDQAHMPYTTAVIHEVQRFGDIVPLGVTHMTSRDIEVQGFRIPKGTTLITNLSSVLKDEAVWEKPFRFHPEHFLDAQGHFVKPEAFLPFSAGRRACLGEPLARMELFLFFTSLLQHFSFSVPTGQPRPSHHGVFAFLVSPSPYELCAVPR
The data set is described as follows: Cytochrome P450 (CYP) 2D6 enzyme time dependent inhibition (TDI) assay. The conditions noted are these: human liver microsomes. In kind it is in vitro ADME. The procedure:
Example B-3: Cytochrome P450 (CYP) 2D6 Enzyme Time Dependent Inhibition (TDI) Assay Protocol
The NADPH-generating system mix was composed of potassium phosphate buffer pH 7.4 (50 mM), NADP+ (1 mM), magnesium chloride (3 mM), EDTA (1 mM), glucose-6-phosphate (5 mM), glucose-6-phosphate dehydrogenase (1 Unit/mL), human liver microsomes (0.1 mg/mL) and water. Compounds of interest in DMSO serial diluted to six different concentrations (final DMSO content of 0.1% v/v) were added to the NADPH-generating system. CYP 2D6 substrate Dextromethorphan was added at a final incubation concentration of 5 μM. The final incubation volume was 200 μL. Incubations were conducted at 37° C. for 10 minutes in a shaking water bath to evaluate the drug candidates as […] of CYP 2D6. In a separate test plate, drug candidates were pre-incubated at 37° C. for 30 minutes in a shaking water bath in NADPH-generating system mix in the absence of Dextromethorphan substrate to allow for the formation of metabolites. This plate was removed from the water bath and placed on ice for 5 minutes. Dextromethorphan substrate was then added and the plate was incubated at 37° C. for 10 minutes in a shaking water bath to determine if any metabolites formed during the 30 minute pre-incubation inhibit the CYP 2D6 enzyme. All incubations were terminated by removing 50 μL of incubation mixture and adding to 200 μL of ice cold acetonitrile containing internal standard. Following precipitation by centrifugation at 3500 rpm and 4° C. for 30 minutes, the resultant supernatant were analyzed by using a multiple reaction monitoring (MRM) LC-MS/MS method detecting for internal standard and the CYP 2D6 enzyme mediated Dextromethorphan O-demethylation metabolite Dextrorphan and IC50 values were determined.
(§1) Table E illustrates representative human liver microsomal stability and time dependent CYP2D6 inhibition (TDI) of exemplary compounds.
In general terms: Liver microsomes are vesicles of endoplasmic reticulum, rich in cytochrome P450 enzymes.

Data set [3] concerns the target human somatostatin receptor subtype 5 (Homo sapiens, UniProt P35346). The data set is described as follows: cAMP assay for SST5R (inhibition of cAMP via human SST5 receptor). The conditions noted are these: for Fold selectivity for SST5 vs SST2: SST5 over SST2, class symbols.
Procedure: cAMP Assay Protocol for SST5R:
The cells are cultured at 37° C., 5% CO2 and 95% humidity. […] The cells are incubated for 20 minutes at 37° C. […] The cells are treated with 50 μL of lysis buffer (HRTF cAMP kit, Cisbio) for 30 minutes and then the lysate is diluted to 250 μL with assay buffer. The lysate is transferred to 384-well plates and cAMP detection and visualization antibodies are added and incubated for 1-24 hours at room temperature. The time-resolved fluorescent signal is read with a Tecan M1000Pro multiplate reader. The intracellular cAMP concentrations are calculated by regression to a standard curve and are plotted vs. the concentration of the compounds of the invention and the EC50 of the compounds are calculated using standard methods. All data manipulations are in GraphPad Prism v6 or v7.
Data set [4] addresses T3, human somatostatin receptor subtype 2 (Homo sapiens, UniProt P30874).
T3 construct: expressed in transfected cells
The data set is described as follows: cAMP assay for SST2R (inhibition of cAMP via human SST2 receptor). In kind it is cell-based. The note with it: Table B, read-out: SST2 potency. From the text:
cAMP Assay Protocol for SST2R:

Data set [5] can be described thus: Liver microsomal stability assay. In kind it is in vitro ADME. The note with it: both sexes, human, pooled human liver microsomes; read-out: HLM Stability t½. The protocol:
Example B-2: Liver Microsomal Stability Assay Protocol
The in vitro stabilities of compounds of interest were determined for various species using pooled male and female human, pooled male Sprague-Dawley rat, pooled male Cynomolgus monkey, and pooled male Beagle dog liver microsomes at microsomal protein concentrations of 0.5 mg/mL. Incubations were carried out in a potassium phosphate buffer (50 mM). The NADPH-generating system was composed of NADP+ (1 mM), magnesium chloride (3 mM), EDTA (1 mM), glucose-6-phosphate (5 mM) and glucose-6-phosphate dehydrogenase (1 Unit/mL) for all experiments. Compounds of interest in DMSO/acetonitrile were added to achieve a final incubation concentration of 1 μM (final DMSO content was 0.1% v/v and final acetonitrile content was 0.9%). The final incubation volume was 400 μL. Incubations were conducted at 37° C. for 0, 5, 10, 20, 40 and 60 minutes in a shaking water bath and terminated by removing 50 μL of incubation mixture and adding to 100 μL of ice cold acetonitrile containing internal standard. Following precipitation by centrifugation at 3500 rpm and 4° C. for 30 minutes, compounds of interest and internal standard were analyzed in the resultant supernatant using a multiple reaction monitoring (MRM) LC-MS/MS method. MS conditions were optimized for each analyte.
as §1

The target of data set [6] is T4, human somatostatin receptor subtype 4 (Homo sapiens, UniProt P31391).
T4 construct: expressed in transfected cells
T4 sequence (P31391 whole entry): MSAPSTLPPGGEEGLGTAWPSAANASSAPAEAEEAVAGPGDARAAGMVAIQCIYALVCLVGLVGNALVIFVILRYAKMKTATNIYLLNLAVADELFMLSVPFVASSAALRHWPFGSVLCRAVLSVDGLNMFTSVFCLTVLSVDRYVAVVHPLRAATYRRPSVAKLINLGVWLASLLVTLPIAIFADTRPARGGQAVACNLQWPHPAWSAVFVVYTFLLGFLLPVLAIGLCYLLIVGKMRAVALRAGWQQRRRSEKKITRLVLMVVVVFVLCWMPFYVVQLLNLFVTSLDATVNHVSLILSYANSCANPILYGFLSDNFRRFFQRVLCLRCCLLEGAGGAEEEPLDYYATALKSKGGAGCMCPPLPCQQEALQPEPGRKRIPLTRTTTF
The data set is described as follows: cAMP assay for hSST4R (inhibition of cAMP via human SST4 receptor). In kind it is cell-based. The note with it: from inhibition of cAMP via human SST5 receptor and human SST4 receptor. From the text: cAMP Assay Protocol hSST4R:

Where [7] appears, read: t = 0 min pre-incubation, read-out: CYP2D6 inhibition, IC50 (μM) t = 0 min.
Where [8] appears, read: t = 30 min pre-incubation, read-out: CYP2D6 inhibition, IC50 (μM) t = 30 min.
[9] abbreviates: read-out: SST5 potency, inhibition of cAMP via human SST5 receptor, Table B.

T3 sequence (P30874 whole entry): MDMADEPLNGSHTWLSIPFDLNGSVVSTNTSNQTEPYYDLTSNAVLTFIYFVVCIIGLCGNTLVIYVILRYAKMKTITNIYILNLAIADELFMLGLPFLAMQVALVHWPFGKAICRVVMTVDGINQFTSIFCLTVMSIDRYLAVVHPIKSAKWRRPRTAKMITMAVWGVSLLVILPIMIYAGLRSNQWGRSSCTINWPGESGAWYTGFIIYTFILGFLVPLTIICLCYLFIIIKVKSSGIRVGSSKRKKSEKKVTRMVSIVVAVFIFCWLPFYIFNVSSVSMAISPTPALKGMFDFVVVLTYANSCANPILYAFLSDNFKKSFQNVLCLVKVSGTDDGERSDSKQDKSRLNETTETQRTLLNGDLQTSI
Sequence of human somatostatin receptor subtype 5 (P35346 whole entry): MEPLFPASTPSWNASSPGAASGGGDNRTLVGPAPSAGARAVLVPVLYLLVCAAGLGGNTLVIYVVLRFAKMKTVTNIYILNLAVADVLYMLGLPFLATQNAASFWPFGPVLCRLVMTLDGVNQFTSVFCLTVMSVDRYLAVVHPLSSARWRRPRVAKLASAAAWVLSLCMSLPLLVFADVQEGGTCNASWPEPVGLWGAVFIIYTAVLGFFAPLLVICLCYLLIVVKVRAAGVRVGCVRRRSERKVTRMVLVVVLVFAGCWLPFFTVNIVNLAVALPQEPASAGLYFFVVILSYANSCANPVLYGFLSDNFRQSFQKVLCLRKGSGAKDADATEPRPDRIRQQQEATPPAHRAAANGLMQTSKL

For the compound `C[C@]1(N)CCN(c2c(-c3ccnc(C#N)c3)cncc2-c2nc3c(F)cccc3[nH]2)C1` [Compound 2-162, 4-[(3S)-3-amino-3-methylpyrrolidin-1-yl]-5-(4-fluoro-1H-1,3-benzodiazol-2-yl)-[3,4′-bipyridine]-2′-carbonitrile], the “Fold selectivity for SST5 vs SST3” value in data set [1] is 517 fold. Further, the 50% inhibitory concentration (IC50) in data set [2] (setting [7]) and in data set [2] (setting [8]) was > 10 µM throughout. Besides, the EC50 in data set [3] is < 10 nM; in data set [3] (setting [9]) it was < 10 nM; in data set [4] it was 100 to 1000 nM. Also, the “Fold selectivity for SST5 vs SST2” value in data set [3] is “+++ (+++=≥500)”. The half-life at 1 μM in data set [5] is > 11.6 h. Also, the “Fold selectivity for SST5 vs SST4” value in data set [6] came to 109 fold.
In the case of `Cc1cc(F)cc(-c2cncc(-c3nc4cccc(C)c4[nH]3)c2N2CC[C@H](N)C2)c1` [Compound 2-182, (3S)-1-[3-(3-fluoro-5-methylphenyl)-5-(4-methyl-1H-1,3-benzodiazol-2-yl)pyridin-4-yl]pyrrolidin-3-amine], the “Fold selectivity for SST5 vs SST3” value in data set [1] came to 6.3 fold. Also, the values for the IC50 in data set [2] (setting [7]) and in data set [2] (setting [8]) were 7.6 µM and 6.5 µM, respectively. For the same compound, the EC50 in data set [3] was < 10 nM; in data set [3] (setting [9]), < 10 nM; in data set [4], 100 to 1000 nM. Besides, the “Fold selectivity for SST5 vs SST2” value in data set [3] is “++ (++=100 to 499)”. For the same compound, the half-life at 1 μM in data set [5] is 0.883 h. In data set [6], the “Fold selectivity for SST5 vs SST4” value is 0.94 fold.
`Cc1cccc2nc(-c3cncc(-c4cc(F)cc(Cl)c4)c3N3CC[C@H](N)C3)[nH]c12` [Compound 2-183, (3S)-1-[3-(3-chloro-5-fluorophenyl)-5-(4-methyl-1H-1,3-benzodiazol-2-yl)pyridin-4-yl]pyrrolidin-3-amine]: the “Fold selectivity for SST5 vs SST3” value in data set [1] is 6.7 fold. Moreover, the half-maximal inhibitory concentration (IC50) in data set [2] (setting [7]) was 6.4 µM; in data set [2] (setting [8]) it was 3.5 µM. Also, the results for the EC50 in data set [3], in data set [3] (setting [9]) and in data set [4] were < 10 nM, < 10 nM and 100 to 1000 nM, respectively. For the same compound, the “Fold selectivity for SST5 vs SST2” value in data set [3] was “++ (++=100 to 499)”. The half-life at 1 μM in data set [5] came to 1.28 h. In addition, the “Fold selectivity for SST5 vs SST4” value in data set [6] came to 4.0 fold.
Consider `COc1cc(F)cc(-c2cncc(-c3nc4c(C)cccc4[nH]3)c2N2CC[C@H](N)C2)c1` [Compound 2-184, (3S)-1-[3-(3-fluoro-5-methoxyphenyl)-5-(4-methyl-1H-1,3-benzodiazol-2-yl)pyridin-4-yl]pyrrolidin-3-amine], for which the “Fold selectivity for SST5 vs SST3” value in data set [1] came out at 7.0 fold. For the same compound, the half-maximal inhibitory concentration (IC50) in data set [2] (setting [7]) came out at 4.2 µM; in data set [2] (setting [8]) it was 2.5 µM. The EC50 was < 10 nM in data set [3], < 10 nM in data set [3] (setting [9]) and 100 to 1000 nM in data set [4]. Moreover, the “Fold selectivity for SST5 vs SST2” value in data set [3] is “++ (++=100 to 499)”. Also, the half-life at 1 μM in data set [5] came to 0.967 h. Besides, the “Fold selectivity for SST5 vs SST4” value in data set [6] amounted to 1.4 fold.
On to `Cc1cccc2nc(-c3cncc(-c4cc(F)cc(C(F)(F)F)c4)c3N3CC[C@H](N)C3)[nH]c12` [Compound 2-185, (3S)-1-{3-[3-fluoro-5-(trifluoromethyl)phenyl]-5-(4-methyl-1H-1,3-benzodiazol-2-yl)pyridin-4-yl}pyrrolidin-3-amine], for which, in data set [1], the “Fold selectivity for SST5 vs SST3” value turned out to be 6.1 fold. Also, the values for the IC50 in data set [2] (setting [7]) and in data set [2] (setting [8]) were 9.5 µM and 2.3 µM, respectively. The EC50 in data set [3] is < 10 nM; in data set [3] (setting [9]), < 10 nM; in data set [4], 100 to 1000 nM. The “Fold selectivity for SST5 vs SST2” value in data set [3] was “++ (++=100 to 499)”. Moreover, the half-life at 1 μM in data set [5] stood at 1.28 h. Moreover, the “Fold selectivity for SST5 vs SST4” value in data set [6] stood at 1.2 fold.
In the case of `Cc1ccnc2nc(-c3cncc(-c4ccc(F)c(Cl)c4)c3N3CC[C@](C)(N)C3)[nH]c12` [Compound 2-192, (3S)-1-[3-(3-chloro-4-fluorophenyl)-5-{7-methyl-1H-imidazo[4,5-b]pyridin-2-yl}pyridin-4-yl]-3-methylpyrrolidin-3-amine], the “Fold selectivity for SST5 vs SST3” value in data set [1] was determined as 18 fold. The results for the IC50 in data set [2] (setting [7]) and in data set [2] (setting [8]) were 4.2 µM and 4.7 µM, respectively. Further, the EC50 in data set [3] is < 10 nM; in data set [3] (setting [9]), < 10 nM; in data set [4], 10 to 100 nM. The “Fold selectivity for SST5 vs SST2” value in data set [3] was “++ (++=100 to 499)”. Besides, in data set [5], the half-life at 1 μM worked out at 1.65 h.
On to `Cc1cccc2nc(-c3cncc(-c4cc(F)cc(F)c4)c3N3CC[C@H](N)C3)[nH]c12` [Compound 2-201, (3S)-1-[3-(3,5-difluorophenyl)-5-(4-methyl-1H-1,3-benzodiazol-2-yl)pyridin-4-yl]pyrrolidin-3-amine], for which, in data set [1], the “Fold selectivity for SST5 vs SST3” value is reported as 5.1 fold. The values for the IC50 in data set [2] (setting [7]) and in data set [2] (setting [8]) were 4.7 µM and 1.8 µM, respectively. In addition, the EC50 was < 10 nM in data set [3], < 10 nM in data set [3] (setting [9]) and 10 to 100 nM in data set [4]. Further, in data set [3], the “Fold selectivity for SST5 vs SST2” value is listed as “+ (+=10 to 99)”. In data set [5], the half-life at 1 μM was 2.88 h. Also, the “Fold selectivity for SST5 vs SST4” value in data set [6] worked out at 1.0 fold.
